The results in this text go back to PMC10439952, “JT002, a small molecule inhibitor of the NLRP3 inflammasome for the treatment of autoinflammatory disorders” (Scientific Reports, 2023).

What all share (assay type): cell-based
Assay [1] concerns the target T1, NLRP3 inflammasome (Mus musculus, UniProt Q8R4B8). Briefly: Inhibition of IL-1β production in mouse BMDMs stimulated by LPS + ATP. The note with it: Mouse BMDM, read-out: Geo Av IC50, IL-1β. Set-up: host or cells: mouse PBMCs; mouse bone-marrow derived macrophages; mouse whole blood (C57BL/6 in the ex vivo study). On the procedure: (§1) Inflammasome activation and whole blood assays were essentially carried out as described earlier. Details can be found in the supplementary information section accompanying this publication. A protocol for blood draws from healthy volunteers and use of the blood in preclinical assays was approved by Western Institutional Review Board, Inc (Puyallup, WA, USA). Informed consent was obtained from each donor prior to the first blood draw.
(§2) Cell viability was determined by addition of an equal volume of CellTiter-Glo® 2.0 reagent (Promega) to the remaining cells/supernatant in each well. Intracellular Caspase-1 activity was measured using the Caspase-Glo® assay (Promega) according to the manufacturer’s instructions. The biochemical capsase-1 assay was conducted at Reaction Biology Corporation (Malvern, USA). Human IL-1β, IL-1α, and TNFα and mouse IL-1β were measured in cell culture supernatants using homogeneous time resolved fluorescence assay kits (HTRF, Cisbio, Codolet, France). Human IL-18 was measured in cell culture supernatants using an ELISA kit (R&D Systems, Minneapolis, MN, USA). Plasma IL-1β concentrations were determined by Quantikine® ELISA (R&D Systems, Minneapolis, MN).
(§3) 4H). MS: m/z 433.1 (M+H+). […]

Assay [2] addresses T1, NLRP3 inflammasome. The assay is described as follows: Inhibition of non-canonical NLRP3 pathway IL-1β production in mouse BMDMs (Pam3CSK4 + transfected LPS). Set-up: host or cells: mouse PBMCs; mouse bone-marrow derived macrophages; mouse whole blood (C57BL/6 in the ex vivo study). Particulars: Mouse BMDM, read-out: Geo Av IC50, IL-1β. The protocol:
as §1, §2, §3

In assay [3] the target is NLRP3 inflammasome (Homo sapiens, UniProt Q96P20). The assay is described as follows: Inhibition of IL-1β production in LPS + ATP stimulated (canonical) human whole blood. Also noted: host or cells: fresh heparinised human whole blood from healthy volunteers. The note with it: read-out: Geo Av IC50, IL-1β. The protocol:
as §1
as §2, with “MN). […]” for “MN).”
flagellin, prepared in Opt iMEM and combined with Lipofectamine 2000. […]

One may read the IC50 as the concentration that gives 50% inhibition.

T1 sequence (Q8R4B8 whole entry): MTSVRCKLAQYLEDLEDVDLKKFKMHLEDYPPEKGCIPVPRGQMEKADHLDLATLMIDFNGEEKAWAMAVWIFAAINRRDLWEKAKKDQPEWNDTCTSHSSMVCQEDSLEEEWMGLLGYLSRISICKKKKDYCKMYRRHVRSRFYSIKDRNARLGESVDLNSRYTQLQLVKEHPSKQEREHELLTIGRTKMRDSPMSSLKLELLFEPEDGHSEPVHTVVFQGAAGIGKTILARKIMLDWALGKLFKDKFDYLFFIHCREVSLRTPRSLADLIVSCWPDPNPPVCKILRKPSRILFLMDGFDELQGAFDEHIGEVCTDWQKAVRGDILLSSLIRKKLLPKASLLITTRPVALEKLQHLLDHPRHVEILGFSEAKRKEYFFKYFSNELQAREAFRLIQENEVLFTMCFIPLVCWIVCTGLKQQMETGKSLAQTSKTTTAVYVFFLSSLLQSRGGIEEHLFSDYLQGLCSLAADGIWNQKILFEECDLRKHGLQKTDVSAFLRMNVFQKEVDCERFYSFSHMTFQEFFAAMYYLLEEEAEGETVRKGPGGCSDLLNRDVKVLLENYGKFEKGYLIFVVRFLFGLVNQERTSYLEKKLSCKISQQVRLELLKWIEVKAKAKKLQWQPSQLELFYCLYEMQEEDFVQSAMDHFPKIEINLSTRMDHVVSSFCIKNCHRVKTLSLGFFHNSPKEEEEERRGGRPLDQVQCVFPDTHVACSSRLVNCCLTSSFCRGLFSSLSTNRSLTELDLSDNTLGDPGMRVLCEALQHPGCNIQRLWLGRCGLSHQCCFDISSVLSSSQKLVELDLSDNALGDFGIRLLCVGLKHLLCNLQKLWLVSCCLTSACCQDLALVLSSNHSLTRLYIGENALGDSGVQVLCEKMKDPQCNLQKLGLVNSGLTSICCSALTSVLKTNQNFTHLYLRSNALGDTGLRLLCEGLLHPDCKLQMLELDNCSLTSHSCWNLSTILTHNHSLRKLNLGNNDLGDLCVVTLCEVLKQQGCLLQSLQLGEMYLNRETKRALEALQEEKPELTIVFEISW
Sequence of NLRP3 inflammasome (Homo sapiens, UniProt Q96P20) (Q96P20 whole entry): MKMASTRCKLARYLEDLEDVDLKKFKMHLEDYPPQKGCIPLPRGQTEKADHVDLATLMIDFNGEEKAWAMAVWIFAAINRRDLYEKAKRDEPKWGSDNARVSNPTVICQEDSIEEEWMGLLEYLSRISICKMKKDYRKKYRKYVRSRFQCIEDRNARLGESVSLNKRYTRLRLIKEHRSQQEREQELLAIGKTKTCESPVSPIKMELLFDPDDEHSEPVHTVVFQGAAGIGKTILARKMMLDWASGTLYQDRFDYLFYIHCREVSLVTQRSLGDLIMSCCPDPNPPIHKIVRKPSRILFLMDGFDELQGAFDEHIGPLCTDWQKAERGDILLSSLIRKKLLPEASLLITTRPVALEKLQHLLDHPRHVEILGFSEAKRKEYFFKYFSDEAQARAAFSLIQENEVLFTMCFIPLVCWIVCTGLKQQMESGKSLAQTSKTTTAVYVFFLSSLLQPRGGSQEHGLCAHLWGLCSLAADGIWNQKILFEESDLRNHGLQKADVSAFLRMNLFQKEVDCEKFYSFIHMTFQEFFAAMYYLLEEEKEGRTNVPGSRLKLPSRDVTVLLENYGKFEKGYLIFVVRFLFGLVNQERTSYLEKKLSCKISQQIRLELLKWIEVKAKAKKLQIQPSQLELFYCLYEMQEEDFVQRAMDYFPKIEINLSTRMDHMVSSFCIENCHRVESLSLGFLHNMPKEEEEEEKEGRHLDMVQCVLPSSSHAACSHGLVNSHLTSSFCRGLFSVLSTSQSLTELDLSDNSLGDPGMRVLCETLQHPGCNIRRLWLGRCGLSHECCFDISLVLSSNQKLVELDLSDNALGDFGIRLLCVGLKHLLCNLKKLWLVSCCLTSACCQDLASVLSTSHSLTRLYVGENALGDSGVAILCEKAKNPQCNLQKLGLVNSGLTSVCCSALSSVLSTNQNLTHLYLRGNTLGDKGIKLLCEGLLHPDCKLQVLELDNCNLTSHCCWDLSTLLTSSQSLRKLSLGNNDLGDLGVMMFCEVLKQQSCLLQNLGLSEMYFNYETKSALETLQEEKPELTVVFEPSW

With `CO[C@@H]1COc2c(S(=O)(=O)NC(=O)Nc3c4c(cc5c3CCC5)CCC4)cnn2C1` [JT002], the IC50 in assay [1] was determined as 5 nM; in assay [2], 30 nM; in assay [3] it was 100 nM.
